Test results: US20180273538A1, “PYRROLO[2,3-d]PYRIMIDINE DERIVATIVES, A PROCESS FOR THEIR PREPARATION AND PHARMACEUTICAL COMPOSITIONS CONTAINING THEM” (LES LABORATOIRES SERVIER, priority 2015, published 2018)

What was measured:
[1] = molecular target: T1, DYRK1A (Homo sapiens, UniProt Q13627); experiment: Kinase TR-FRET assay, DYRK1A; assay type: biochemical
T1 construct: full-length human kinases from Carna Biosciences; purchased Carna Biosciences 04-130

[2] = molecular target: T2, DYRK1B (Homo sapiens, UniProt Q9Y463); experiment: Kinase TR-FRET assay, DYRK1B; assay type: biochemical
T2 construct: full-length human kinases from Carna Biosciences; purchased Carna Biosciences 04-131
T2 sequence (Q9Y463 whole entry): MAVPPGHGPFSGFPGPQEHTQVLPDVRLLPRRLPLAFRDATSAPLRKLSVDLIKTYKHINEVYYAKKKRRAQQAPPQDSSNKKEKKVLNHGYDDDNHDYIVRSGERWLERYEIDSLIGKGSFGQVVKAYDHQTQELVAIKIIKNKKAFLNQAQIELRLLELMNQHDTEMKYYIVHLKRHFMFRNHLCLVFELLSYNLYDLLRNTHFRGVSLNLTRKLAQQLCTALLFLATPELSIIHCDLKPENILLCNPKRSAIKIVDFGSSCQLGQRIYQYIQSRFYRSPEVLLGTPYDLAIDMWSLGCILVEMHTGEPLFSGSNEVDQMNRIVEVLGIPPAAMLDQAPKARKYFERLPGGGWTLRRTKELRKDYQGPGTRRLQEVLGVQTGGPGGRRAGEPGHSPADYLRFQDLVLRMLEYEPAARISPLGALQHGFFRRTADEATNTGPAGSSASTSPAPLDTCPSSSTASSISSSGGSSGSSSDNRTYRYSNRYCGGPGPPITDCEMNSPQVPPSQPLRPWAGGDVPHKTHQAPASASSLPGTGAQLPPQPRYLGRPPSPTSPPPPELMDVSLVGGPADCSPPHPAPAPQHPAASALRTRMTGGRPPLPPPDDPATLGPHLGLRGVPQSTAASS

[3] = molecular target: T3, CLK1 (Homo sapiens, UniProt P49759); experiment: Kinase TR-FRET assay, CLK1; assay type: biochemical
T3 construct: full-length human kinases from Carna Biosciences; purchased Carna Biosciences 04-126
T3 sequence (P49759 1-526 isoform P49759-3): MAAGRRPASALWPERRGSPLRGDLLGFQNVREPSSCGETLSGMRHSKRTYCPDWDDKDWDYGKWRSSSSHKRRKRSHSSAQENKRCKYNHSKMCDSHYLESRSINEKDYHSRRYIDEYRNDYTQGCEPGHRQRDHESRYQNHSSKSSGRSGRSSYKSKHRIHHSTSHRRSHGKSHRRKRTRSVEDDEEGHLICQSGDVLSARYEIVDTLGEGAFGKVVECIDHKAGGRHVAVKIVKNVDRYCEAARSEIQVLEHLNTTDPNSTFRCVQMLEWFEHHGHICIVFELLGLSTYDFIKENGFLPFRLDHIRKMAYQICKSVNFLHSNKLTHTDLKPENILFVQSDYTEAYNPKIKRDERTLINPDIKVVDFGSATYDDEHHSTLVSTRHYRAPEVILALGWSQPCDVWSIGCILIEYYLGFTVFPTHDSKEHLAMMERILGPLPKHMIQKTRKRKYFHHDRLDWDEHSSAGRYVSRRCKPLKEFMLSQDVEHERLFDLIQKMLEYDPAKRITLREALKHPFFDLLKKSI

[4] = molecular target: T4, His-TEV-DYRK1A Kinase domain (aa127-485) (Homo sapiens, UniProt Q13627); experiment: Kinase ADP assay (ADP Hunter Plus); assay type: biochemical
T4 construct: His-TEV-DYRK1A Kinase domain (aa127-485); His (N); TEV cleavage site (N)

[5] = molecular target: T5, phospho-Ser520-DYRK1A (Homo sapiens, UniProt Q13627); experiment: Cellular DYRK1A autophosphorylation assay in U2-OS cells; assay type: cell-based; conditions: 5 hours exposure, read-out: IC50 (μM) P-Ser520-Dyrk1A-Cell assay
T5 construct: full-length, wild-type human DYRK1A (NM_001396) with an HA tag; expressed in transfected cells; host or cells: human U2-OS osteosarcoma cells, pcDNA3.1 plasmid

[6] = molecular target: T6, CDK9 (Homo sapiens, UniProt P50750); experiment: Kinase TR-FRET assay, CDK9; assay type: biochemical
T6 construct: full-length human kinases from Carna Biosciences; purchased Carna Biosciences 04-110
T6 sequence (P50750 whole entry): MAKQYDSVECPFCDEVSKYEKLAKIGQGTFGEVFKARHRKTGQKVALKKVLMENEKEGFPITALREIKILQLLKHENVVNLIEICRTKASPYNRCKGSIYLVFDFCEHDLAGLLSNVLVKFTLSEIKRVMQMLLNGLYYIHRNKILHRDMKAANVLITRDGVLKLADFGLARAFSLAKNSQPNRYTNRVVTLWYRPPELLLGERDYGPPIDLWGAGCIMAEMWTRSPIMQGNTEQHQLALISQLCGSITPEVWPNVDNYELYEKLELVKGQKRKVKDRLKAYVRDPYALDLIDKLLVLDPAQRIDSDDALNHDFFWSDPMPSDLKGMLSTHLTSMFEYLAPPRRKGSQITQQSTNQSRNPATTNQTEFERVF
T6 sequence (O60563 whole entry partner): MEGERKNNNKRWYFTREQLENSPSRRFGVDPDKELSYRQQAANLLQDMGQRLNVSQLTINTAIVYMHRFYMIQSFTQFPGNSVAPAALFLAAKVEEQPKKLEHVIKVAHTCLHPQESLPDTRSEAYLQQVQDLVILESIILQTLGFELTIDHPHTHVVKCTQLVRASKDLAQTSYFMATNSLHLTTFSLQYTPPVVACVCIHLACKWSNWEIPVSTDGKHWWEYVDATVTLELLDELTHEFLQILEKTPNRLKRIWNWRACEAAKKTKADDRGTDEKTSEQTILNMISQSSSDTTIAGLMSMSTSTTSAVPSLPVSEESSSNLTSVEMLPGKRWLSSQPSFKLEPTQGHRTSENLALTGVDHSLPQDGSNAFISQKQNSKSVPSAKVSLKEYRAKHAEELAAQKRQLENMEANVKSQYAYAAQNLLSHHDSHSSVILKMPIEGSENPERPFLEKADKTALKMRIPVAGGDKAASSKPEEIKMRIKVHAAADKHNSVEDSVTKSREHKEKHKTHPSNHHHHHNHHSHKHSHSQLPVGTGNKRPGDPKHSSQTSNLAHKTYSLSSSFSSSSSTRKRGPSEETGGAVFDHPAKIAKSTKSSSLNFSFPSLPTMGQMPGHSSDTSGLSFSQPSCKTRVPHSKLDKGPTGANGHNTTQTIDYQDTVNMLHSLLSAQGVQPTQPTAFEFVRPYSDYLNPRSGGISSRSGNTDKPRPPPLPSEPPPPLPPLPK

Row | Compound | IC50 [1] [µM] | IC50 [2] [µM] | IC50 [3] [µM] | IC50 [4] [µM] | IC50 [5] [µM] | IC50 [6] [µM]
1 | Cc1nc(N2CCc3sccc3C2)c2c(-c3ccnc(N)c3)c[nH]c2n1 [Example 108, 4-[4-(6,7-dihydrothieno[3,2-c]pyridin-5(4H)-yl)-2-methyl-7H-pyrrolo[2,3-d]pyrimidin-5-yl]pyridin-2-amine] | 0.0027 | 0.0092 | 0.0283 | 0.009 | 0.0491 | –
2 | C#Cc1nc(NCc2c(F)cccc2F)c2c(-c3ccnc(N)c3)c[nH]c2n1 [Example 148, 5-(2-aminopyridin-4-yl)-N-(2,6-difluorobenzyl)-2-ethynyl-7H-pyrrolo[2,3-d]pyrimidin-4-amine] | 0.0042 | 0.0144 | 0.0303 | 0.007 | 0.0335 | –
3 | Cc1nc(NCc2ncccc2C(F)(F)F)c2c(-c3ccnc(N)c3)c[nH]c2n1 [Example 78, 5-(2-aminopyridin-4-yl)-2-methyl-N-{[3-(trifluoromethyl)pyridin-2-yl]methyl}-7H-pyrrolo[2,3-d]pyrimidin-4-amine] | 0.0013 | 0.0145 | 0.0293 | 0.01 | 0.0721 | –
4 | Cc1nc(N2CCc3ccccc3C2)c2c(-c3ccnc(N)c3)c[nH]c2n1 [Example 96, 4-[4-(3,4-dihydroisoquinolin-2(1H)-yl)-2-methyl-7H-pyrrolo[2,3-d]pyrimidin-5-yl]pyridin-2-amine] | 0.0023 | 0.0315 | 0.0151 | 0.009 | 0.0119 | –
5 | Cc1nc(-c2ccc3c(c2)OCO3)c2c(-c3ccnc(N)c3)c[nH]c2n1 [Example 179] | – | 0.0115 | 0.0425 | – | – | –
6 | Cc1nc(N2CCC3CCCCC3C2)c2c(-c3ccnc(N)c3)c[nH]c2n1 (centres unmarked) [Example 104, 4-[2-methyl-4-(octahydroisoquinolin-2(1H)-yl)-7H-pyrrolo[2,3-d]pyrimidin-5-yl]pyridin-2-amine] | 0.0081 | 0.0167 | 0.0225 | 0.015 | 0.105 | –
7 | Nc1cc(-c2c[nH]c3nc(C#CC4CC4)cc(NCc4c(F)cccc4F)c23)ccn1 [Example 216, 3-(2-aminopyridin-4-yl)-6-(cyclopropylethynyl)-N-(2,6-difluorobenzyl)-1H-pyrrolo[2,3-b]pyridin-4-amine] | 0.0145 | 0.0219 | 0.121 | 0.021 | 0.0807 | –
8 | Cc1cc(NCc2c(F)cccc2F)c2c(-c3ccnc(N)c3)c[nH]c2n1 [Example 213, 3-(2-aminopyridin-4-yl)-N-(2,6-difluorobenzyl)-6-methyl-1H-pyrrolo[2,3-b]pyridin-4-amine] | 0.0026 | 0.0092 | 0.0172 | 0.008 | 0.057 | –
9 | CC(C)c1nc(NCc2c(F)cccc2F)c2c(-c3ccnc(N)c3)c[nH]c2n1 [Example 150, 5-(2-aminopyridin-4-yl)-N-(2,6-difluorobenzyl)-2-(propan-2-yl)-7H-pyrrolo[2,3-d]pyrimidin-4-amine] | 0.0034 | – | – | 0.74 | – | 1.17
10 | Cc1nc(CN2CCc3ccccc32)c2c(-c3ccnc(N)c3)c[nH]c2n1 [Example 178, 4-[4-(2,3-dihydro-1H-indol-1-ylmethyl)-2-methyl-7H-pyrrolo[2,3-d]pyrimidin-5-yl]pyridin-2-amine] | 0.0052 | 0.0141 | 0.18 | 0.013 | 0.0782 | –
11 | Cc1nc(NC2Cc3ccccc3C2)c2c(-c3ccnc(N)c3)c[nH]c2n1 [Example 99, 5-(2-aminopyridin-4-yl)-N-(2,3-dihydro-1H-inden-2-yl)-2-methyl-7H-pyrrolo[2,3-d]pyrimidin-4-amine] | 0.0086 | 0.0293 | 0.0549 | 0.029 | 0.192 | –
12 | Cc1nc(NCc2c(F)cncc2F)c2c(-c3ccnc(N)c3)c[nH]c2n1 [Example 119, 5-(2-aminopyridin-4-yl)-N-[(3,5-difluoropyridin-4-yl)methyl]-2-methyl-7H-pyrrolo[2,3-d]pyrimidin-4-amine] | 0.0066 | 0.0192 | 0.0828 | 0.02 | 0.232 | –
13 | Cc1nc(NCc2ncccc2F)c2c(-c3ccnc(N)c3)c[nH]c2n1 [Example 71, 5-(2-aminopyridin-4-yl)-N-[(3-fluoropyridin-2-yl)methyl]-2-methyl-7H-pyrrolo[2,3-d]pyrimidin-4-amine] | – | 0.0074 | 0.0237 | – | – | –
14 | Cc1cc(-c2ccc3c(c2)OCCO3)c2c(-c3ccnc(N)c3)c[nH]c2n1 [Example 217, 4-[4-(2,3-dihydro-1,4-benzodioxin-6-yl)-6-methyl-1H-pyrrolo[2,3-b]pyridin-3-yl]pyridin-2-amine] | 0.0027 | 0.0077 | 0.0261 | 0.01 | 0.0385 | –
15 | Cc1nc(-c2ccc3c(c2)OCCO3)c2c(-c3ccnc(N)c3)c[nH]c2n1 [Example 173] | 0.0045 | 0.0051 | 0.0334 | 0.013 | 0.0497 | –
16 | Cc1nc(OCc2cc(C)on2)c2c(-c3ccncc3)c[nH]c2n1 [Example 16, 2-methyl-4-[(5-methyl-1,2-oxazol-3-yl)methoxy]-5-(pyridin-4-yl)-7H-pyrrolo[2,3-d]pyrimidine] | 0.0149 | 0.0178 | 0.0328 | 0.011 | 0.14 | –
17 | Cc1nc(NCc2c(F)cccc2F)c2c(-c3ccnc(N)n3)c[nH]c2n1 [Example 206, 5-(2-aminopyrimidin-4-yl)-N-(2,6-difluorobenzyl)-2-methyl-7H-pyrrolo[2,3-d]pyrimidin-4-amine] | – | 0.0133 | 0.0238 | – | – | –
18 | Cc1nc(NCc2c(F)cccc2F)c2c(-c3cc(N)nc(N)c3)c[nH]c2n1 [Example 115, 4-{4-[(2,6-difluorobenzyl)amino]-2-methyl-7H-pyrrolo[2,3-d]pyrimidin-5-yl}pyridine-2,6-diamine] | 0.0031 | 0.0094 | 0.0172 | 0.005 | 0.0185 | –
19 | Cc1nc(OCc2ccc(C#N)cc2)c2c(-c3ccnc(N)c3)c[nH]c2n1 [Example 25, 4-({[5-(2-aminopyridin-4-yl)-2-methyl-7H-pyrrolo[2,3-d]pyrimidin-4-yl]oxy}methyl)benzonitrile] | 0.0031 | 0.0079 | 0.0177 | 0.012 | 0.036 | –
20 | Cc1nc(-c2cc3cccc(Cl)c3s2)c2c(-c3ccnc(N)c3)c[nH]c2n1 [Example 185] | 0.0048 | 0.0158 | 0.0631 | 0.011 | 0.012 | –
21 | Cc1nc(NCc2c(F)cccc2Cl)c2c(-c3ccnc(N)c3)c[nH]c2n1 [Example 62, 5-(2-aminopyridin-4-yl)-N-(2-chloro-6-fluorobenzyl)-2-methyl-7H-pyrrolo[2,3-d]pyrimidin-4-amine] | 0.0186 | 0.0002 | 0.0162 | 0.008 | 0.021 | –
22 | Cc1nc(NCc2cccc(Cl)c2C)c2c(-c3ccnc(N)c3)c[nH]c2n1 [Example 94, 5-(2-aminopyridin-4-yl)-N-(3-chloro-2-methylbenzyl)-2-methyl-7H-pyrrolo[2,3-d]pyrimidin-4-amine] | 0.0077 | 0.0112 | 0.0378 | 0.019 | 0.155 | –
23 | Cc1nc(NCc2cccc(F)c2F)c2c(-c3ccnc(N)c3)c[nH]c2n1 [Example 74, 5-(2-aminopyridin-4-yl)-N-(2,3-difluorobenzyl)-2-methyl-7H-pyrrolo[2,3-d]pyrimidin-4-amine] | 0.0012 | – | 0.0184 | 0.014 | 0.111 | –
24 | Cc1nc(-c2cc3ccccc3[nH]2)c2c(-c3ccnc(N)c3)c[nH]c2n1 [Example 161] | 0.0091 | 0.0252 | 0.122 | 0.028 | 0.15 | –
25 | COc1ccccc1[C@H](C)Nc1nc(C)nc2[nH]cc(-c3cc(N)nc(N)c3)c12 [Example 117, 4-(4-{[(1S}-1-(2-methoxyphenyl)ethyl]amino}-2-methyl-7H-pyrrolo[2,3-d]pyrimidin-5-yl)pyridine-2,6-diamine] | 0.0059 | 0.0093 | 0.0195 | 0.01 | 0.0377 | –
26 | Cc1nc(NCc2c(C)cccc2Cl)c2c(-c3ccnc(N)c3)c[nH]c2n1 [Example 58, 5-(2-aminopyridin-4-yl)-N-(2-chloro-6-methylbenzyl)-2-methyl-7H-pyrrolo[2,3-d]pyrimidin-4-amine] | 0.0215 | 0.0175 | 0.0245 | 0.01 | 0.0337 | –
27 | Cc1nc(NCc2c(Cl)cccc2Cl)c2c(-c3ccnc(N)c3)c[nH]c2n1 [Example 61, 5-(2-aminopyridin-4-yl)-N-(2,6-dichlolorobenzyl)-2-methyl-7H-pyrrolo[2,3-d]pyrimidin-4-amine] | 0.0062 | 0.0029 | 0.0129 | 0.01 | 0.0115 | –
28 | Cc1nc(-c2cc3ccccc3n2C)c2c(-c3ccnc(N)c3)c[nH]c2n1 [Example 186] | 0.0053 | 0.0211 | 0.0927 | 0.017 | 0.0855 | –
